In patent US20130029981A1, “COMPOUNDS, COMPOSITIONS, AND METHODS FOR CONTROLLING BIOFILMS” (Katholieke Universiteit Leuven, priority 2009, published 2013):

What was measured:
Assay in all cases: Bioscreen assay: influence on planktonic growth curve
[1] = tested on: S. Typhimurium ATCC14028; assay type: cell-based, Salmonella Typhimurium; parameters: key: x: no influence on the planktonic growth at the IC50 for biofilm inhibition; ∘: planktonic growth is retarded at the IC50 for biofilm inhibition; conditions: planktonic growth at the IC50 for biofilm inhibition, 25° C.
Source text: (§1) Some of the tested compounds show a concentration range in which biofilm formation is inhibited but no effect on planktonic growth is observed. These compounds are particularly interesting for prevention of biofilm formation since the development of resistance against these compounds is less likely. Table 8 indicates whether the different compounds have an effect on the planktonic growth of the bacteria at the IC50 for biofilm inhibition. To construct Table 8, the effect of the tested compounds on the growth curve of the bacteria was determined at a concentration equal to the IC50 for biofilm inhibition, by using the Bioscreen system available from Oy Growth Curves Ab Ltd). The Bioscreen device from Oy Growth Curves Ab Ltd was used for measuring the influence of the chemical compounds on the planktonic growth of Salmonella Typhimurium and Pseudomonas aeruginosa. The Bioscreen is a computer controlled incubator/reader/shaker that uses 10×10 well microtiter plates and measures light absorbance of each well at a specified wave length in function of time. An overnight culture of S. […] The broth used was TSB 1/20 for the experiments at 16° C. and 25° C. For experiments at 37° C. CFA medium was used for S. […] As a control 3 μl of the appropriate solvent (DMSO or EtOH) was also added to the plate in 3- or 4-fold. The microtiter plate was incubated in the Bioscreen device at 16° C., 25° C. or 37° C. for at least 36 hours, with continious medium shaking. The absorbance of each well was measured at 600 nm each 15 minutes. Excel was used to generate the growth curves for treated the treated wells and the untreated control wells. Some of the compounds show a concentration range in which biofilm formation is inhibited but no effect on the planktonic growth is observed. Table 14 indicates if the different compounds have an effect on the planktonic growth of the bacteria at the IC50 for biofilm inhibition. To construct this table the effect of the compounds on the growth curve of the bacteria was determined at a concentration equal to the IC50 for biofilm inhibtion, by using the Bioscreen system from Oy Growth Curves Ab Ltd.

[2] = tested on: S. Typhimurium ATCC14028; assay type: cell-based, Salmonella Typhimurium; parameters: key: x: no influence on planktonic growth at the IC50 for biofilm inhibition; planktonic growth is retarded at the IC50 for biofilm inhibition; conditions: planktonic growth at the IC50 for biofilm inhibition, 25° C.
Source text: as §1, with “Table 14 indicates if the different compounds have an effect on the planktonic growth of the bacteria at the IC50 for biofilm inhibition.” left out

[3] = tested on: Pseudomonas aeruginosa PA14; assay type: cell-based; parameters: key: x: no influence on planktonic growth at the IC50 for biofilm inhibition; planktonic growth is retarded at the IC50 for biofilm inhibition; conditions: planktonic growth at the IC50 for biofilm inhibition, 25° C.
Source text: Some of the tested compounds show a concentration range in which biofilm formation is inhibited but no effect on planktonic growth is observed. These compounds are particularly interesting for prevention of biofilm formation since the development of resistance against these compounds is less likely. Table 8 indicates whether the different compounds have an effect on the planktonic growth of the bacteria at the IC50 for biofilm inhibition. To construct Table 8, the effect of the tested compounds on the growth curve of the bacteria was determined at a concentration equal to the IC50 for biofilm inhibition, by using the Bioscreen system available from Oy Growth Curves Ab Ltd). The Bioscreen device from Oy Growth Curves Ab Ltd was used for measuring the influence of the chemical compounds on the planktonic growth of Salmonella Typhimurium and Pseudomonas aeruginosa. The Bioscreen is a computer controlled incubator/reader/shaker that uses 10×10 well microtiter plates and measures light absorbance of each well at a specified wave length in function of time. An overnight culture of S. […] The absorbance of each well was measured at 600 nm each 15 minutes. […] To construct this table the effect of the compounds on the growth curve of the bacteria was determined at a concentration equal to the IC50 for biofilm inhibtion, by using the Bioscreen system from Oy Growth Curves Ab Ltd.

[4] = tested on: S. Typhimurium ATCC14028; assay type: cell-based, Salmonella Typhimurium; conditions: 400 μM
Source text: as §1

Row | SMILES | Influence on growth [1] | Influence on growth [2] | Influence on growth [3] | Effect on growth at 400 μM [4]
1 | CCCCCCN1c2nccc[n+]2CC1(O)c1ccc([N+](=O)[O-])cc1.[Br-] (stereo not shown) [Compound 34] | x | – | – | –
2 | OC1(c2ccc(Cl)cc2)C[n+]2cccnc2N1C1CCCCC1.[Br-] (stereo not shown) [Compound 64] | x | – | – | –
3 | O=[N+]([O-])c1ccc(C2(O)C[n+]3cccnc3N2C2CCCCCCCCCCC2)cc1.[Br-] (stereo not shown) [Compound 69] | – | ∘ | ∘ | –
4 | OC1(c2ccc(I)cc2)C[n+]2cccnc2N1Cc1ccccc1.[Br-] (stereo not shown) [Compound 73] | x | – | – | ∘
5 | OC1(c2ccc(-c3ccccc3)cc2)C[n+]2cccnc2N1C1CCCC1.[Br-] (stereo not shown) [R1=Cyclopentyl, R3=4-biphenylyl, R4=H, 1-cyclopentyl-2-hydroxy-2-(4-biphenylyl)-2,3-dihydro-1H-imidazo[1,2-a]pyrimidin-4-ium bromide] | x | – | – | –
